Results as given in the NIST ThermoML archive (doi:10.1021/je100358e).
± gives the expanded uncertainty stated by the source.

Experiments:
[1] = Crystal; visual observation
[2] = Molar enthalpy of transition or fusion; conditions: Crystal; DSC

## Oc1ccc2ccccc2c1 [2-hydroxynaphthalene]
[1]
  Normal melting temperature: 121.20 ± 1.5 °C
[2]
  Molar enthalpy of transition or fusion: 5.04 ± 0.717 kcal/mol
